For this series the following is noted: Liquid; Ebulliometric method (Recirculating still).

Numbers after ± are expanded uncertainties.

Turning to `c1ccccc1` [benzene], the Normal boiling temperature was 80 ± 0.2 °C.
For the compound `CCO` [ethanol], the Normal boiling temperature worked out at 78.6 ± 0.2 °C.
In the case of `ClC(Cl)Cl` [trichloromethane], the Normal boiling temperature worked out at 61.0 ± 0.2 °C.
Under `FC(F)(F)c1ccccc1` [(trifluoromethyl)benzene] stands 102.6 ± 0.2 °C.

(Values after the NIST ThermoML archive (doi:10.1016/j.jct.2007.09.002).)
